Data published in patent publication US20020155164A1, “System and method for the prevention of infections in human patients using nitric oxide” (priority 2001, published 2002).

System: bacteria
Experiment: Tests performed in vitro on bacteria
Format: cell-based
Conditions: many types of bacteria
Source text: The inventors of the instant invention have investigated NO for its use as a sterilizing agent in the prevention and treatment of infections. […] PCT International Application No. PCT/CA99/01123, a published Jun. 2, 2000, discloses a method and an apparatus for the treatment of human respiratory infections by NO inhalation.

**Q.** Which “effect on growth / killing of bacteria” value does the source give for `[N]=O` [NO, nitric oxide] here?
**A.** interfere with the growth of and/or kill many types of bacteria
